Like-named read-outs stand apart in the source and are kept apart here.
Biological target: T1, NR1-1a/NR2B NMDA receptor (Rattus norvegicus, UniProt P35439+Q00960)
T1 construct: expressed in transfected cells; host or cells: HEK293 cells (ATCC CRL1573)
Assay: Patch-clamp inhibition of glutamate-evoked currents at recombinant NMDA receptors in transfected HEK293 cells
Type: cell-based
Description: Transfected cells were identified by means of fluorescent green protein (GFP) fluorescence. Its genus was transfected together with the both receptor subunit genes.
Steroid-containing solutions were prepared from fresh solution (20 mmol·l^−1, of steroid dissolved in dimethyl sulfoxide, DMSO), which was added to the extracellular solution containing 1 mmol·l^−1 glutamic acid and 10 μmol·l^−1 of glycine. Identical concentrations of DMSO were added to all other extracellular solutions.
Current responses produced by extracellular application of glutamic acid solution (1 mmol·l^−1) were measured from the whole cell by patch-clamp technique, which is used for the study of transport of charged particles through model and also natural biological membranes. The currents were measured at membrane potential maintained at −60 mV and +60 mV.
Same amounts (0.3 μg) of cDNA coding NR1, NR2 and GFP (green fluorescent protein) (pQBI 25, Takara, Japan) were mixed with 0.9 μl of Matra-A Reagent (IBA, Göttingen, Germany) and added to confluent HEK293 cells cultivated in v 24-pit cultivating plate. After trypsination, the cells were re-suspended in Opti-MEM® I containing 1% fetal bovine serum. Subsequently, 20 mmol·l^−1 MgCl2, 1 mmol l^−1 D,L-2-amino-5-phosphonopentanoic acid, 3 mmol·l^−1 kynurenic acid was added to the mixture and cells were inoculated on the polylysine-coated glass plates having 25 mm in diameter. The following genes coding NMDA receptor subunits were used for transfection: NR1-1 a (GenBank accession No. U08261) and NR2B (GenBank accession No. M91562).
HEK293 Cultured cells were used for electrophysiological investigations with a latency of 16-40 h after transfection. Whole-cell currents were measured by patch-clamp amplifier (Axopatch 1D; Axon Instruments, Inc. Foster City, USA) after capacitance and serial resistance (<10 MΩ) compensation to 80-90%. Agonist-induced responses were filtered to 1 kHz (8-pole Bessel filter; Frequency Devices, Haverhill, USA), digitized with sampling frequency of 5 kHz and analyzed by pClamp version 9 software (Axon Instruments, USA). […] Extracellular solution (ECS) contained 160 mmol·l^−1 sodium chloride, 2.5 mmol·l^−1 potassium chloride, 10 mmol·l^−1 HEPES, 10 mmol·l^−1 glucose, 0.2 mmol·l^−1 EDTA a 0.7 mmol·l^−1 calcium chloride (pH adjusted to 7.3 by sodium hydroxide solution). Glycine was added to both testing and control solution. Moreover, bicuculline (10 μmol·l^−1) and tetrodotoxin (0.5 μmol·l^−1) was added to hippocampal cultures. Steroid-containing solutions were prepared from fresh solution (20 mmol·l^−1) of steroid dissolved in dimethyl sulfoxide (DMSO). Same concentrations of DMSO were used in all extracellular solutions. Control and experimental solutions were applied via microprocessor-controlled perfusion system with approx. rate of solution exchange in areas adjacent to cells reaching ˜10 ms.
Current responses produced by 100 μmol·l^−1 of NMDA (in the case of hipocampal neurones), or by 1 mmol·l^−1 of glutamate (on recombinant NMDA receptors) were measured at membrane potential maintained at −60 mV. […] Relative effect of steroid-induced inhibition was used for calculating IC50.

[1] = calculated from relative steroid-induced inhibition, Hill's coefficient 1.2, read-out: IC50
[2] = HEK293, steroid concentration 50 μmol·l^−1, 1 mmol·l^−1 glutamate, −60 mV, read-out: Mean % change ± SD
[3] = HEK293, read-out: Mean % change ± SD

T1 sequence (Q00960 27-1482, other chains not shown): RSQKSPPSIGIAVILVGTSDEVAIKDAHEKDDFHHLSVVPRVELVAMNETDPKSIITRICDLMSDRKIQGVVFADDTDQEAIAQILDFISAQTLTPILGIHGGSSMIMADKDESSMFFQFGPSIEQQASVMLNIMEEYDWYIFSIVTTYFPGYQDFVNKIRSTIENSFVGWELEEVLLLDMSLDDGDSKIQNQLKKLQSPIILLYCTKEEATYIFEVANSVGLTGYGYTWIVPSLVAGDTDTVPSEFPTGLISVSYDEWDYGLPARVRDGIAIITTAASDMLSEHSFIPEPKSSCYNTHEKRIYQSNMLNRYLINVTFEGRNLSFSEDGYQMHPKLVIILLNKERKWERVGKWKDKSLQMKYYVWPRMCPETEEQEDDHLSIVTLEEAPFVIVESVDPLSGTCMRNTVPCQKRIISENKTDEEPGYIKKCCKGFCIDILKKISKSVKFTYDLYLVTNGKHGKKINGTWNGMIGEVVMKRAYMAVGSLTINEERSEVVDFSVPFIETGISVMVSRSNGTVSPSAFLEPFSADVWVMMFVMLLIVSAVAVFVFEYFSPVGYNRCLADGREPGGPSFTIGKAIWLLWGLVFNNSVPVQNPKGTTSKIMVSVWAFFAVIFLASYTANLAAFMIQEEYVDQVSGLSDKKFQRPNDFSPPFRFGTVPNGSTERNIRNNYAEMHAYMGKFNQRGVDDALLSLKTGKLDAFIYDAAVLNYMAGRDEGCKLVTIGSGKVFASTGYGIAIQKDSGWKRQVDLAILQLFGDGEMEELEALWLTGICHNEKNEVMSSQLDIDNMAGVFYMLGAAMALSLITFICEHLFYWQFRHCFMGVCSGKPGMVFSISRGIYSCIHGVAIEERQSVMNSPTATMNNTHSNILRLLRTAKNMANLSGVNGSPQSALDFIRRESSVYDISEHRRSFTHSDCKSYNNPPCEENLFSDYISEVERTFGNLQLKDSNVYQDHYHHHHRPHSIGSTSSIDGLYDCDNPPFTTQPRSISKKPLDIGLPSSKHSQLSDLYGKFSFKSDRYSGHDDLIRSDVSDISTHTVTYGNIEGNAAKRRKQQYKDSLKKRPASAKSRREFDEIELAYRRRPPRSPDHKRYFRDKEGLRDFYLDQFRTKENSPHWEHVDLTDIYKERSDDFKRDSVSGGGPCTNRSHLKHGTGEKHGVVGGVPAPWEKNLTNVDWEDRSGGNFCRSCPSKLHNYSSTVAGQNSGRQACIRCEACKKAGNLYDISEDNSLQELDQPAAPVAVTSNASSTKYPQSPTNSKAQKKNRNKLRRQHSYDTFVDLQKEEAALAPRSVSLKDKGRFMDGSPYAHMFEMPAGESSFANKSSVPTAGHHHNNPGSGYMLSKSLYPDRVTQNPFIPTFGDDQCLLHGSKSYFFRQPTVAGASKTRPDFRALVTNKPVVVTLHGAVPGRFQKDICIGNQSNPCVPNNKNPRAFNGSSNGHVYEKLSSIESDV

C[C@]12CC[C@@H](OS(=O)(=O)O)C[C@H]1CC[C@H]1CCCC[C@@H]12.c1ccncc1 [Compound 8, Pyridinium (2R,4aS,4bS,8aR,10aR)-4a-methyltetradecahydrophenanthren-2-yl 2-Sulfate]
IC50 [1]: 28.3 µM
Mean % change ± SD (steroid concentration 100 μmol·l^−1, 1 mmol·l^−1 glutamate, −60 mV): 78.3 ± 5.5%

COC[C@@]1(C)CC[C@H]2[C@@H](CC[C@@H]3C[C@H](OS(=O)(=O)O)CC[C@@]32C)[C@@H]1C [Compound 18, Pyridinium (2R,4aS,4bS,7S,8S,8aS,10aR)-7-(methoxymethyl)-4a,7,8-trimethyltetra-decahydrophenanthren-2-yl 2-sulfate]
inhibition at 50 µM [2]: 60.5 ± 4.6%
IC50 [1]: 33 µM

COC[C@@]1(C)CC[C@H]2[C@@H](CC[C@@H]3C[C@H](OC(=O)CCC(=O)O)CC[C@@]32C)C1C (stereo partly drawn) [Compound 19, 4-(((2R,4aS,4bS,7S,8aS,10aR)-7-(methoxymethyl)-4a,7,8-trimethyltetradecahydrophenanthren-2-yl)oxy)-4-oxobutanoic acid]
inhibition at 50 µM [2]: 47.4 ± 4.3%
IC50 [1]: 55 µM

COC(=O)C1(C)CCC2C(CCC3CC(OS(=O)(=O)O)CCC32C)C1C [Compound 22, Pyridinium (2R,4aS,7S,8S,10aR)-7-(methoxycarbonyl)-4a,7,8-trimethyltetra-decahydrophenanthren-2-yl 2-sulfate]
inhibition at 100 µM (HEK293, steroid concentration 100 μmol·l^−1, 1 mmol·l^−1 glutamate, −60 mV, read-out: Mean % change ± SD): 40.9 ± 6.1%
IC50 [1]: 74.6 µM

C[C@@H]1CC[C@H]2[C@@H](CC[C@@H]3C[C@H](OS(=O)(=O)O)CC[C@@]32C)C1 [Compound 35, Pyridinium (2R,4aS,4bS,7R,8aS,10aR)-4a,7-dimethyltetradecahydrophenanthren-2-yl 2-sulfate]
inhibition at 50 µM [2]: 85 ± 1.2%
IC50 [1]: 12 µM

COC(=O)[C@@]1(C)CC[C@H]2[C@@H](CC[C@@H]3C[C@H](OS(=O)(=O)O)CC[C@@]32C)C1 [Compound 40, Methyl (2S,4aS,4bS,7R,8aR,10aS)-2,4b-dimethyl-7-(sulfooxy)tetradecahydrophenanthren-2-carboxylate]
inhibition at 50 µM [2]: 14.4 ± 1.8%
IC50 [1]: 224 µM

C[C@@]12CCC[C@H]1[C@@H]1CC[C@@H]3C[C@H](OS(=O)(=O)O)CC[C@]3(C)[C@H]1CC2.c1ccncc1 [Compound 49, Pyridinium (3R,5R,8S,9S,10S,13S,14S)-10,13-dimethylhexadecahydro-1H-cyclopenta[a]phenanthren-3-yl 3-sulfate]
IC50 [1]: 2.1 µM
Mean % change ± SD (steroid concentration 2 μmol·l^−1, 1 mmol·l^−1 glutamate, −60 mV): 49.2 ± 6.6%

C[C@@]12CCC[C@H]1[C@@H]1CC[C@@H]3C[C@H](OC(=O)C(=O)O)CC[C@]3(C)[C@H]1CC2 [Compound 50, 2-(((3R,5R,8S,9S,10S,13S,14S)-10,13-Dimethylhexadecahydro-1H-cyclopenta[a]phenanthren-3-yl)oxy)-2-oxoethanoic acid]
inhibition at 10 µM [3]: 64 ± 7%
IC50 [1]: 6.3 µM

C[C@@]12CCC[C@H]1[C@@H]1CC[C@@H]3C[C@H](OC(=O)CC(=O)O)CC[C@]3(C)[C@H]1CC2 [Compound 51]
inhibition at 10 µM [3]: 42 ± 14%
IC50 [1]: 15.5 µM

C[C@@]12CCC[C@H]1[C@@H]1CC[C@@H]3C[C@H](OC(=O)CCC[N+](C)(C)C)CC[C@]3(C)[C@H]1CC2 [Compound 62, 4-(((3R,5R,8S,9S,10S,13S,14S)-10,13-Dimethylhexadecahydro-1H-cyclopenta[a]-phenanthren-3-yl)oxy)-N,N,N-trimethyl-4-oxobutan-1-ammonium chloride]
inhibition at 1 µM [3]: 34 ± 5%
IC50 [1]: 1.7 µM

C[C@]12CC[C@@H](OC(=O)CCC(=O)O)C[C@H]1CC[C@@H]1[C@@H]2CC[C@]2(C)C=CC[C@@H]12 [Compound 64, 4-(((3R,5R,8R,9S,10S,13R,14S)-10,13-Dimethyl-2,3,4,5,6,7,8,9,10,11,12,13,14,15-tetra-decahydro-1H-cyclopenta[a]phenanthren-3-yl)oxy)-4-oxobutanoic acid]
inhibition at 10 µM [3]: 45.9 ± 11.7%
IC50 [1]: 12.9 µM

C[C@]12CC[C@@H](OC(=O)CC(=O)O)C[C@H]1CC[C@@H]1[C@@H]2CC[C@]2(C)C=CC[C@@H]12 [Compound 65, 3-(((3R,5R,8R,9S,10S,13R,14S)-10,13-Dimethyl-2,3,4,5,6,7,8,9,10,11,12,13,14,15-tetradecahydro-1H-cyclopenta[a]phenanthren-3-yl)oxy)-3-oxopropanoic acid]
inhibition at 10 µM [3]: 44 ± 11%
IC50 [1]: 13.5 µM

C=C1CC[C@H]2[C@@H]3CC[C@@H]4C[C@H](OC(=O)C[N+](C)(C)C)CC[C@]4(C)[C@H]3CC[C@]12C [Compound 76, 2-(((3R,5R,8R,9S,10S,13S,14S)-10,13-Dimethyl-17-methylenehexadecahydro-1H-cyclopenta[a]phenanthren-3-yl)oxy)-N,N,N-trimethyl-2-oxoethan-1-ammonium chloride]
inhibition at 50 µM [3]: 50 ± 10%
IC50 [1]: 51.7 µM

C/C=C1/CC[C@H]2[C@@H]3CC[C@@H]4C[C@H](OC(=O)CCCC(=O)O)CC[C@]4(C)[C@H]3CC[C@]12C [Compound 85, 5-(((3R,5R,8R,9S,10S,13S,14S,Z)-17-Ethylidene-10,13-dimethylhexadecahydro-1H-cyclopenta[a]phenanthren-3-yl)oxy)-5-oxopentanoic acid]
inhibition at 50 µM [3]: 59.4 ± 7.8%
IC50 [1]: 38.4 µM

C[C@]12CC[C@@H](OS(=O)(=O)O)C[C@H]1CC[C@@H]1[C@@H]2CC[C@]2(C)[C@@H](I)CC[C@@H]12 [Compound 93, Pyridinium (3R,5R,8R,9S,10S,13S,14S,17S)-17-iodo-10,13-dimethylhexadecahydro-1H-cyclopenta[a]phenanthren-3-yl 3-sulfate]
inhibition at 5 µM [3]: 90.5 ± 2.2%
IC50 [1]: 0.8 µM

C[C@]12CC[C@@H](OS(=O)(=O)O)C[C@H]1CC[C@@H]1[C@@H]2CC[C@@]2(C)[C@H]1CCC2(F)F [Compound 95, Pyridinium (3R,5R,8R,9S,10S,13S,14S)-17,17-difluoro-10,13-dimethylhexadecahydro-1H-cyclopenta[a]phenanthren-3-yl 3-sulfate]
IC50: 7 µM
inhibition at 10 µM [3]: 61.2 ± 5.1%

C[C@]12CC[C@@H](OS(=O)(=O)O)C[C@H]1CC[C@@H]1[C@@H]2CC[C@@]2(C)[C@H]1CC[C@@]21CO1 [Compound 97, Pyridinium (3R,5R,8R,9S,10S,13S,14S,17S)-10,13-dimethylhexadecahydrospiro-[cyclopenta[a]phenanthren-17,2′-oxiran]-3-yl 3-sulfate]
inhibition at 100 µM [3]: 78 ± 8.9%
IC50 [1]: 45 µM

CC12CCCCC1C1CCC3CC(OS(=O)(=O)O)CCC3(C)C1CC2 [Compound 101, Pyridinium (2R,4aS,4bS,6aS,10bS,6aS,12aR)-4a,6a-dimethyloctadecahydrochrysen-2-yl 2-sulfate]
inhibition at 5 µM (HEK293, steroid concentration 5 μmol·l^−1, 1 mmol·l^−1 glutamate, −60 mV, read-out: Mean % change ± SD): 69.1 ± 5.9%
IC50 [1]: 2.3 µM

C=C1C[C@H]2[C@@H]3CC[C@@H]4C[C@H](OS(=O)(=O)O)CC[C@]4(C)[C@H]3CC[C@]2(C)C1 [Compound 114, Pyridinium (3R,5R,8S,9S,10S,13R,14S)-10,13-dimethyl-16-methylenhexadekhydro-1H-cyclopenta[a]phenanthren-3-yl 3-sulfate]
inhibition at 3 µM [3]: 59.1 ± 3.8%
IC50 [1]: 2.1 µM

C[C@@]12CCC[C@H]1[C@H]1CC[C@H]3C[C@H](OS(=O)(=O)O)CC[C@]3(C)[C@@H]1CC2.c1ccncc1 [Compound 127, Pyridinium (3R,5S,8R,9R,10S,13S,14S)-10,13-dimethylhexadecahydro-1H-cycopenta[a]phenanthren-3-yl 3-sulfate]
IC50 [1]: 1.7 µM
Mean % change ± SD (steroid concentration 3 μmol·l^−1, 1 mmol·l^−1 glutamate, −60 mV): 34.0 ± 5.0%

C[C@@]12CCC[C@H]1[C@@H]1CC[C@@H]3C[C@H](N4CC(C(=O)O)CC4=O)CC[C@]3(C)[C@H]1CC2 (stereo partly drawn) [Compound 131, 1-((3R,5R,8S,9S,10S,13S,14S)-10,13-Dimethylhexadecahydro-1H-cyclopenta[a]phenanthren-3-yl)-5-oxopyrrolidine-3-carboxylic acid]
inhibition at 10 µM [3]: 34.7 ± 7.2%
IC50 [1]: 17.7 µM
